Assay results: ChEMBL document CHEMBL3991601, “The target landscape of clinical kinase drugs” (Science, 2017)
Calls of active or inactive are those of the source. Cut-off read from the data, not from the text of the source, for most assays here: actives have a measured Kd and inactives only a lower limit.

Tests used:
[1] = molecular target: T1, Signal recognition particle receptor subunit alpha (Homo sapiens, UniProt P08240)
T1 sequence (P08240 whole entry): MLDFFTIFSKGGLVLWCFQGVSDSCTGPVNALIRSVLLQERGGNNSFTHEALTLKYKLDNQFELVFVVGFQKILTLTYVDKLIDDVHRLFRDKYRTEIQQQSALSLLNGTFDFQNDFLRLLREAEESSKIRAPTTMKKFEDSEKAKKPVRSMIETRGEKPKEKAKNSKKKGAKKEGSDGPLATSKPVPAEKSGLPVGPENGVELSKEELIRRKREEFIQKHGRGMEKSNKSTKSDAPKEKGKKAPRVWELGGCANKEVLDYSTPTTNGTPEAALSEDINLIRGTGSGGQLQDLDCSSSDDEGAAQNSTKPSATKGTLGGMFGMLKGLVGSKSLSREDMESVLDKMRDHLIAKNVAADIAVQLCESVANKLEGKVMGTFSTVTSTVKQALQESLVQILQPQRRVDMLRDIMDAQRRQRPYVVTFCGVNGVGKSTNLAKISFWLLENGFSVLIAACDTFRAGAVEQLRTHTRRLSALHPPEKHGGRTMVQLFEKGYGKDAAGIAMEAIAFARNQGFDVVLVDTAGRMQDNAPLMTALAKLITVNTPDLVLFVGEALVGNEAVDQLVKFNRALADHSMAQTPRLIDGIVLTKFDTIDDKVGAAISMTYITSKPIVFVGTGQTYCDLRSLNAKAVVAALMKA

[2] = molecular target: T2, Bifunctional phosphoribosylaminoimidazole carboxylase/phosphoribosylaminoimidazole succinocarboxamide synthetase (Homo sapiens, UniProt P22234)
T2 sequence (P22234 whole entry): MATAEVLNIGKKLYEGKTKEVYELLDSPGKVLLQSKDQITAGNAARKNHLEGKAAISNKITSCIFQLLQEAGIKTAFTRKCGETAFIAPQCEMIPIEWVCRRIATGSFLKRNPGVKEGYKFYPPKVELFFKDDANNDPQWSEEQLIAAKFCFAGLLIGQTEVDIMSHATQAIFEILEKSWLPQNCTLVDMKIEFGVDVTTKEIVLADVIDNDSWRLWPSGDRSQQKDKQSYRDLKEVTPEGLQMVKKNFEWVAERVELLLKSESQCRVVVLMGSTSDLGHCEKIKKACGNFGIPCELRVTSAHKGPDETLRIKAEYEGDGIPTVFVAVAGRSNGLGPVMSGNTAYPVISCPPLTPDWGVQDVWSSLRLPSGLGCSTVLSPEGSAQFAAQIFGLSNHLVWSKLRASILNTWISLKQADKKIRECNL

[3] = molecular target: MAP/microtubule affinity-regulating kinase 3 (Homo sapiens, UniProt P27448)
MAP/microtubule affinity-regulating kinase 3, sequence (P27448 whole entry): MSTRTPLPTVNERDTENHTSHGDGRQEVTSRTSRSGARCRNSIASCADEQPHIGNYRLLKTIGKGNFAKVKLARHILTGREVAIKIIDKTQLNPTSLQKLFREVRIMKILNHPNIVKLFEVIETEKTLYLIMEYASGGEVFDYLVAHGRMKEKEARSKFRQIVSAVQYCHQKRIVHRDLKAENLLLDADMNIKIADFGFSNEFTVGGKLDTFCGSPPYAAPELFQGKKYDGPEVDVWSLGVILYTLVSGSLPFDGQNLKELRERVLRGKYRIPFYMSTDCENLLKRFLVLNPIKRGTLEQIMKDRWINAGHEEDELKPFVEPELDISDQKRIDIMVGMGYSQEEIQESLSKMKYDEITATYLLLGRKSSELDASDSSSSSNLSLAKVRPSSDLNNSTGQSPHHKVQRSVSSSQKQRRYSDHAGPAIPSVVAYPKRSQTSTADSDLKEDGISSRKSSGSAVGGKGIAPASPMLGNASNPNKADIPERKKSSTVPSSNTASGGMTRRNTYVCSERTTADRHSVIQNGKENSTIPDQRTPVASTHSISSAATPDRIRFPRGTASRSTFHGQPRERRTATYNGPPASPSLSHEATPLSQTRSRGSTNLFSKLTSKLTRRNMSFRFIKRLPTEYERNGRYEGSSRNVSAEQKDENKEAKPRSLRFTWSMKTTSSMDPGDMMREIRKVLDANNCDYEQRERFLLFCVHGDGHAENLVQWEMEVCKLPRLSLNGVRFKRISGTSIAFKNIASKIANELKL

[4] = molecular target: AP2-associated protein kinase 1 (Homo sapiens, UniProt Q2M2I8)
AP2-associated protein kinase 1, sequence (Q2M2I8 whole entry): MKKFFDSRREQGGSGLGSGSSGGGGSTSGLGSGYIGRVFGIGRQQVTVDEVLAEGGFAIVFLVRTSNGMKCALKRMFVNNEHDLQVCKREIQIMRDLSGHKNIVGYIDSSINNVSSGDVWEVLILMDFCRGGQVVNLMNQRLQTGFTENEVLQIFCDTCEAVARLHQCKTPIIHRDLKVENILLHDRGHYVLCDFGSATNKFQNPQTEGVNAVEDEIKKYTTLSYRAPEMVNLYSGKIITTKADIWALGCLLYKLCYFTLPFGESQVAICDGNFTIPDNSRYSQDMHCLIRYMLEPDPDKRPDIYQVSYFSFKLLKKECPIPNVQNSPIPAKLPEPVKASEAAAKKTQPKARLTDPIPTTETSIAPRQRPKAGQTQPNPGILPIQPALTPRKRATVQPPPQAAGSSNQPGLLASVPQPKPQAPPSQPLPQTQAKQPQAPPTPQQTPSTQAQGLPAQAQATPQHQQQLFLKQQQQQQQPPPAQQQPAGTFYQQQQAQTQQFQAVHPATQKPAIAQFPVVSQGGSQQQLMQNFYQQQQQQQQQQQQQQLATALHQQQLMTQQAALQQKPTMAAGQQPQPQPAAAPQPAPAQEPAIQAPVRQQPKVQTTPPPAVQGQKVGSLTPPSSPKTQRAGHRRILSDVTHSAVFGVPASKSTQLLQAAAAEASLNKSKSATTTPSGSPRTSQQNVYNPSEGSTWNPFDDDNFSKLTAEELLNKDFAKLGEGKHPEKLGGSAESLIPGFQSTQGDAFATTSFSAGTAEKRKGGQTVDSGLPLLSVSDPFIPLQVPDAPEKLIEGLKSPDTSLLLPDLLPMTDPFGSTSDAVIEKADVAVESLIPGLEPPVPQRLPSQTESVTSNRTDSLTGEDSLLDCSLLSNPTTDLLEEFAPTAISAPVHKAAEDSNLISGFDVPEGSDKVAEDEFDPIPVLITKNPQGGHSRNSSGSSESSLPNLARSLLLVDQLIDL

[5] = molecular target: T3, Acyl-CoA dehydrogenase family member 11 (Homo sapiens, UniProt Q709F0)
T3 sequence (Q709F0 whole entry): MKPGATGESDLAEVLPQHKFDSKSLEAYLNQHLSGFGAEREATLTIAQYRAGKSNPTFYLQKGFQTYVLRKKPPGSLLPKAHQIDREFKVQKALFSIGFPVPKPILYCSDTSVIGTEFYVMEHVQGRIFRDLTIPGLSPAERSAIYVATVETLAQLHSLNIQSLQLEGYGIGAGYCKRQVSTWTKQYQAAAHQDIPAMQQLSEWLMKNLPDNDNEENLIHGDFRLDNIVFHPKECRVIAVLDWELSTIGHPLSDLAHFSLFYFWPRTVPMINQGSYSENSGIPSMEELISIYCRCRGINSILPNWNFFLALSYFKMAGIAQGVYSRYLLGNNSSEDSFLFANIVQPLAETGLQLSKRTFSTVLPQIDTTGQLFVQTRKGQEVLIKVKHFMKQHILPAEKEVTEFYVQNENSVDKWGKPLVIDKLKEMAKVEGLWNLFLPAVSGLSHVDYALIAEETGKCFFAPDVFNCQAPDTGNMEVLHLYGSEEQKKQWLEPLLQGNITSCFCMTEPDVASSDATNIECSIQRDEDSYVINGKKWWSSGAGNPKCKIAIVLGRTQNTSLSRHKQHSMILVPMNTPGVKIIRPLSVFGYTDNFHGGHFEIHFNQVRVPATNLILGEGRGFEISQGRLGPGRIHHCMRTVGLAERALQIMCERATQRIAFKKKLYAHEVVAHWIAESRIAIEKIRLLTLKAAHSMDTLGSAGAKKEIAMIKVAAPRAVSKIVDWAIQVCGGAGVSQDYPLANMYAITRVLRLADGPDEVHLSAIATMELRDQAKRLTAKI

[6] = molecular target: T4, Ephrin type-B receptor 4 (Homo sapiens, UniProt P54760)
T4 sequence (P54760 whole entry): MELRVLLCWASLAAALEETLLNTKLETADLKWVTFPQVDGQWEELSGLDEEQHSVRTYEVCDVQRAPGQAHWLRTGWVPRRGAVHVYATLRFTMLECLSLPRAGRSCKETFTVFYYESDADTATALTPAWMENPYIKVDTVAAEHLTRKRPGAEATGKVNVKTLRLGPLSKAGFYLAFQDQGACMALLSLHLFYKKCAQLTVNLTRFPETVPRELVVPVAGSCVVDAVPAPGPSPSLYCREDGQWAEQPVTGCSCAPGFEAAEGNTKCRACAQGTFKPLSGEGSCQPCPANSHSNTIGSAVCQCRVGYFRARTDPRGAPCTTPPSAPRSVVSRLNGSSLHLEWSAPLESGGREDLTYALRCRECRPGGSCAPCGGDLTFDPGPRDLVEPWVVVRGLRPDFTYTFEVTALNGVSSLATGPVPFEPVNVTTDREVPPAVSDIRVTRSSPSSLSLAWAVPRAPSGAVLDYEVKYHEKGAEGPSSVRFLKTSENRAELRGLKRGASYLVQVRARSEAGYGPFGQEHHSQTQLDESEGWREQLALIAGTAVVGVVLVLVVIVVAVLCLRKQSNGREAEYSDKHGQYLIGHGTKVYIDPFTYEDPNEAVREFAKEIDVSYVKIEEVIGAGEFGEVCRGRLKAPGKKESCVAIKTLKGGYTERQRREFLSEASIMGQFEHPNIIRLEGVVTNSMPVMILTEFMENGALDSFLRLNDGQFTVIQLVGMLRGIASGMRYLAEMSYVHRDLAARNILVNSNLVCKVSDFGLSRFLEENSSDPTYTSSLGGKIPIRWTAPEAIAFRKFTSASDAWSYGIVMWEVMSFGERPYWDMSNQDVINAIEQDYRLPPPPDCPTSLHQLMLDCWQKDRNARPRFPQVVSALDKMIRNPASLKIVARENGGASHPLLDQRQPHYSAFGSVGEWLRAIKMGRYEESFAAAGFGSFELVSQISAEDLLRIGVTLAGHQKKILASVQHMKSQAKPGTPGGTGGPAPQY

[7] = molecular target: Tyrosine-protein kinase Fyn (Homo sapiens, UniProt P06241)
Tyrosine-protein kinase Fyn, sequence (P06241 whole entry): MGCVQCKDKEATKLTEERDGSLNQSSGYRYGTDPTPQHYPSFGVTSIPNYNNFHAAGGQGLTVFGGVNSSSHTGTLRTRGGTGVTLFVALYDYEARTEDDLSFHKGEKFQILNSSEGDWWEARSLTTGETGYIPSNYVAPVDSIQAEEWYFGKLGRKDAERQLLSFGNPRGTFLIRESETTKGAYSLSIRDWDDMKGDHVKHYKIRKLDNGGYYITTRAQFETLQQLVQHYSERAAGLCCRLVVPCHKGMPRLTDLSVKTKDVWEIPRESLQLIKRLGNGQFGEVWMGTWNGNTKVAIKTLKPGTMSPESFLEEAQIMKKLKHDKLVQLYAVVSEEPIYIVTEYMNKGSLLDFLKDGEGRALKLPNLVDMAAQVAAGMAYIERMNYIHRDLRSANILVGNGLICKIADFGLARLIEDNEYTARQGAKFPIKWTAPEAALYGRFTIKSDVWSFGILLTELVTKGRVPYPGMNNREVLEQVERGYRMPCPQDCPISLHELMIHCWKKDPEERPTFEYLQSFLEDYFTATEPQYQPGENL
Note: in the data inactive means no Kd found up to 30 µM.

Kd [1] | Kd [2] | Kd [3] | Kd [4] | Kd [5] | Kd [6] | Kd [7] | SMILES
> 30 µM (inactive) | > 30 µM (inactive) | > 30 µM (inactive) | > 30 µM (inactive) | > 30 µM (inactive) | > 30 µM (inactive) | > 30 µM (inactive) | O=C(O)[C@]1(Cc2cccc(Nc3nccs3)n2)CC[C@@H](Oc2cccc(Cl)c2F)CC1 [MK-5108]
> 30 µM (inactive) | > 30 µM (inactive) | > 30 µM (inactive) | > 30 µM (inactive) | > 30 µM (inactive) | > 30 µM (inactive) | > 30 µM (inactive) | CNC(=O)c1ccc(-c2cnc3ncc(Cc4ccc5ncccc5c4)n3n2)cc1F [CAPMATINIB]
> 30 µM (inactive) | > 30 µM (inactive) | 9.02 µM (active) | > 30 µM (inactive) | > 30 µM (inactive) | > 30 µM (inactive) | > 30 µM (inactive) | COc1cc(CCc2cc(NC(=O)c3ccc(N4C[C@@H](C)N[C@@H](C)C4)cc3)n[nH]2)cc(OC)c1 [AZD-4547]
